Source: ChEMBL document CHEMBL3585310, “Synthesis and evaluation of artesunateindoloquinoline hybrids as antimalarial drug candidates” (Medchemcomm, 2014)

Columns and labels:
[1] = molecular target: Heme; experiment: Binding affinity to heme assessed as inhibition of beta-hematin formation by NP40 detergent based assay
[2] = system: Plasmodium falciparum; experiment: Resistance index, ratio of IC50 for chloroquine-resistant Plasmodium falciparum K1 to IC50 chloroquine-sensitive Plasmodium falciparum NF54; format: functional
[3] = Selectivity index, ratio of IC50 for rat L6 cells to IC50 for chloroquine-resistant Plasmodium falciparum K1; format: toxicity, cell-based; settings: L6 cells (cytotoxicity) versus Plasmodium falciparum K1, read-out: Ratio IC50
[4] = Selectivity index, ratio of IC50 for rat L6 cells to IC50 for chloroquine-sensitive Plasmodium falciparum NF54; format: toxicity, cell-based; settings: L6 cells (cytotoxicity) versus Plasmodium falciparum NF54, read-out: Ratio IC50
[5] = system: Plasmodium falciparum; experiment: Antiplasmodial activity against chloroquine-resistant Plasmodium falciparum K1; format: functional, organism-based
[6] = system: L6; experiment: Cytotoxicity against rat L6 cells; format: cell-based
[7] = system: Plasmodium berghei; experiment: Antimalarial activity against Plasmodium berghei infected in NMRI mouse assessed as survival at 10 mg/kg, ip for 4 consecutive days by FACS analysis; format: functional
[8] = system: Plasmodium falciparum; experiment: Antiplasmodial activity against chloroquine-sensitive Plasmodium falciparum NF54; format: functional, organism-based
[9] = system: Plasmodium berghei; experiment: Antimalarial activity against Plasmodium berghei infected in NMRI mouse at 10 mg/kg, ip for 4 consecutive days by FACS analysis; format: functional

Compound | IC50 [1] [nM] | Ratio IC50 [2] | selectivity ratio [3] | selectivity ratio [4] | IC50 [5] [nM] | IC50 [6] [nM] | MSD [7] [days] | IC50 [8] [nM] | Activity [9] [%]
COC(=O)c1ccc2c(c1)c(NCCCN)c1c3ccccc3nc-1n2C | 104000 | – | – | – | – | – | – | – | –
NCCCNc1nc2ccccc2c2[nH]c3ccccc3c12 | 627000 | 6 | 7.6 | 45.8 | – | – | – | – | –
C[C@H]1[C@H](OC(=O)CCC(=O)NCCCNc2c3c4ccccc4nc-3n(C)c3ccccc23)O[C@@H]2O[C@@]3(C)CC[C@H]4CCC[C@@H]1[C@]42OO3 | 222000 | 0.93 | 3640 | 3400 | 0.42 | 1530 | 7.7 | 0.45 | 89.6
C[C@H]1[C@H](OC(=O)CCC(=O)NCC(C)(C)CNc2c3c4ccccc4nc-3n(C)c3ccccc23)O[C@@H]2O[C@@]3(C)CC[C@H]4CCC[C@@H]1[C@]42OO3 | 70200 | 0.82 | 3180 | 2600 | 0.93 | 2960 | – | 1.14 | –
C[C@H]1[C@H](OC(=O)CCC(=O)NCC(C)(C)CNc2c3c4ccccc4nc-3n(C)c3ccc(Cl)cc23)O[C@@H]2O[C@@]3(C)CC[C@H]4CCC[C@@H]1[C@]42OO3 | 37800 | 0.27 | 3130 | 856 | 0.41 | 1280 | – | 1.5 | –
C[C@H]1[C@H](OC(=O)CCC(=O)NCC(C)(C)CNc2c3c4ccccc4nc-3n(C)c3ccc(Br)cc23)O[C@@H]2O[C@@]3(C)CC[C@H]4CCC[C@@H]1[C@]42OO3 | 28900 | 0.3 | 1040 | 309 | 0.95 | 991 | – | 3.21 | –
COC(=O)c1ccc2c(c1)c(NCCCNC(=O)CCC(=O)O[C@@H]1O[C@@H]3O[C@@]4(C)CC[C@H]5CCC[C@@H]([C@H]1C)[C@]53OO4)c1c3ccccc3nc-1n2C | 29200 | 0.35 | 3720 | 1290 | 1 | 3720 | – | 2.88 | –
COC(=O)c1ccc2c(c1)c(NCC(C)(C)CNC(=O)CCC(=O)O[C@@H]1O[C@@H]3O[C@@]4(C)CC[C@H]5CCC[C@@H]([C@H]1C)[C@]53OO4)c1c3ccccc3nc-1n2C | 25800 | 0.36 | 604 | 219 | 1.15 | 695 | – | 3.17 | –
COC(=O)c1ccc2c(c1)c(NCC(O)CNC(=O)CCC(=O)O[C@@H]1O[C@@H]3O[C@@]4(C)CC[C@H]5CCC[C@@H]([C@H]1C)[C@]53OO4)c1c3ccccc3nc-1n2C (stereo partly drawn) | 41700 | 0.27 | 3060 | 826 | 0.4 | 1220 | – | 1.48 | –
C[C@H]1[C@H](OC(=O)CCC(=O)NCCCNc2nc3ccccc3c3[nH]c4ccccc4c23)O[C@@H]2O[C@@]3(C)CC[C@H]4[C@H](C)CC[C@@H]1[C@@]24OO3 | 15700 | 0.4 | 3290 | 1320 | 0.67 | 2200 | – | 1.67 | –
C[C@H]1[C@H](OC(=O)CCC(=O)NCCCNc2c3ccccc3nc3c2[nH]c2ccccc23)O[C@@H]2O[C@@]3(C)CC[C@H]4[C@H](C)CC[C@@H]1[C@@]24OO3 | 17100 | – | – | 215 | – | 2620 | – | 12.2 | –
NCCCNc1c2ccccc2nc2c1[nH]c1ccccc12 | 16800 | – | – | 16 | – | 276 | – | 17.2 | –
C[C@@H]1CC[C@H]2[C@@H](C)C(=O)O[C@@H]3O[C@@]4(C)CC[C@@H]1[C@]32OO4 [ARTEMISININ] | – | – | – | – | 2.8 | – | – | 4.3 | –
